Some test systems named below: DU-145 prostate; SF-268 CNS; SF-295 CNS; NCI-H226 lung; SNB-75 CNS; 786-0 renal; UO-31 renal; HCT-116 colon; SK-MEL-5 melanoma; RPMI-8226 leukemia.
What all share (assay): growth of human tumour cells (NCI), 48 h

Where “and” joins values, the source holds several entries; their conditions need not be identical. Equal entries are not always repeated.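 Grown in 96-well plates, cells were treated for 48 hours with each compound at five concentrations. Insufficient inhibition: endpoint recorded as highest concentration tested. GI50 = concentration required for 50% inhibition of growth. TGI: total growth inhibition.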

For `O=C1c2ccccc2-c2c1c1ccccc1c(=O)n2CCCN1CCOCC1`, the GI50 in the assay on DU-145 prostate was 10.1 µM; with SF-268 CNS it was 6.52 µM; in the assay with SF-295 CNS, 6.72 µM; in the assay with NCI-H226 lung, 26.4 µM; in the assay on SNB-75 CNS, 2.98 µM; in the assay on 786-0 renal, 3.94 µM. Further, the GI50 is 17.1 µM in the assay with UO-31 renal, 13.6 µM with HCT-116 colon, 12.3 µM in the assay with SK-MEL-5 melanoma and over 44.4 µM in the assay with RPMI-8226 leukemia. Besides, the TGI in the assay with DU-145 prostate was over 82.6 µM; with SF-268 CNS, 26.1 µM; with SF-295 CNS, 20.6 µM; in the assay on NCI-H226 lung, 84.5 µM; with SNB-75 CNS, over 27.7 µM; in the assay with 786-0 renal it was 18.5 µM. Also, the TGI in the assay on UO-31 renal was over 100 µM; in the assay on HCT-116 colon, 31.8 µM; in the assay on SK-MEL-5 melanoma it was over 95 µM; in the assay with RPMI-8226 leukemia it was over 100 µM.

In the case of `CCN(CC)CCCCCCCNc1c2ccc(Cl)cc2nc2ccc(OC)cc12`, the GI50 in the assay with DU-145 prostate was 0.66 µM; in the assay with SF-268 CNS it was 1.03 µM; with SF-295 CNS, 0.701 µM; in the assay with NCI-H226 lung, 1.83 µM; with SNB-75 CNS it was 1.29 µM; in the assay with 786-0 renal, 0.902 µM. The GI50 was 0.545 µM in the assay on UO-31 renal, 0.285 µM in the assay with HCT-116 colon, 1.68 µM with SK-MEL-5 melanoma and 0.337 µM with RPMI-8226 leukemia. In addition, the TGI stood at 2 µM with DU-145 prostate; 2.5 µM in the assay on SF-268 CNS; 2.37 µM with SF-295 CNS; 4.42 µM in the assay on NCI-H226 lung; 2.62 µM with SNB-75 CNS; 2.35 µM in the assay on 786-0 renal. Also, the TGI in the assay with UO-31 renal was determined as 2.03 µM; in the assay with HCT-116 colon it was 0.801 µM; with SK-MEL-5 melanoma it was 3.09 µM; with RPMI-8226 leukemia it was 1.3 µM.

For the compound `OCCCCC#Cc1ccccc1C#Cc1ccccc1C(F)(F)F`, the GI50 in the assay with DU-145 prostate is 6.16 µM; in the assay with SF-268 CNS it was 17.4 µM; in the assay on SF-295 CNS, 2.34 µM; in the assay with NCI-H226 lung, 16.7 µM; in the assay on SNB-75 CNS it was 18.7 µM; in the assay with 786-0 renal it was 10.3 µM. Also, the GI50 is 11.8 µM in the assay with UO-31 renal, 6.46 µM with HCT-116 colon, 11.6 µM with SK-MEL-5 melanoma and 3.84 µM in the assay with RPMI-8226 leukemia. Also, the TGI worked out at 19 µM in the assay with DU-145 prostate; 33.7 µM with SF-268 CNS; 6.7 µM with SF-295 CNS; 44.4 µM in the assay on NCI-H226 lung; 35.9 µM with SNB-75 CNS; 24.9 µM in the assay with 786-0 renal. Also, the TGI with UO-31 renal came to 24.1 µM; in the assay on HCT-116 colon, 21.3 µM; in the assay on SK-MEL-5 melanoma it was 24.4 µM; with RPMI-8226 leukemia, 26 µM.

`Cc1cc2c(F)c(Oc3ncnn4cc(OC[C@@H](C)OC(=O)[C@H](C)N)c(C)c34)ccc2[nH]1`: the GI50 was 11.7 µM in the assay with DU-145 prostate; 8 µM in the assay with SF-268 CNS; 7.87 µM in the assay on SF-295 CNS; 7.75 µM in the assay on NCI-H226 lung; 9.42 µM in the assay on SNB-75 CNS; 12 µM in the assay on 786-0 renal. Besides, the GI50 in the assay on UO-31 renal is 7.58 µM; in the assay with HCT-116 colon it was 3.38 µM; in the assay on SK-MEL-5 melanoma, 3.26 µM; in the assay on RPMI-8226 leukemia it was 5.94 µM. The TGI amounted to 24.2 µM with DU-145 prostate; 23.5 µM with SF-268 CNS; 21.3 µM in the assay on SF-295 CNS; 24.8 µM in the assay with NCI-H226 lung; 24.6 µM in the assay with SNB-75 CNS; 26.9 µM in the assay with 786-0 renal. In addition, the TGI with UO-31 renal worked out at 21.4 µM; in the assay on HCT-116 colon it was 18.9 µM; with SK-MEL-5 melanoma, 15.1 µM; in the assay with RPMI-8226 leukemia, 23.7 µM.

Turning to `O=C1c2ccccc2-c2c1c1ccccc1c(=O)n2CCNCCNCCn1c2c(c3ccccc3c1=O)C(=O)c1ccccc1-2`, the GI50 is 0.179 µM in the assay with DU-145 prostate; 0.241 µM in the assay on SF-268 CNS; 0.0917 µM in the assay on SF-295 CNS; 0.22 µM in the assay on NCI-H226 lung; 7.95 µM with SNB-75 CNS; 0.0267 µM with 786-0 renal. Moreover, the GI50 with UO-31 renal was 0.519 µM; in the assay with HCT-116 colon, 0.0159 µM; in the assay on SK-MEL-5 melanoma it was 0.957 µM; in the assay on RPMI-8226 leukemia, 0.011 µM. Besides, the TGI came to 4.61 µM in the assay on DU-145 prostate; 10 µM in the assay on SF-268 CNS; 10.8 µM in the assay with SF-295 CNS; 18.9 µM in the assay on NCI-H226 lung; 47.5 µM with SNB-75 CNS; 2.37 µM in the assay on 786-0 renal. Further, the TGI came to 1.42 µM in the assay with HCT-116 colon, 19.9 µM in the assay with SK-MEL-5 melanoma and 1.24 µM in the assay with RPMI-8226 leukemia.

For the compound `COc1ccc(-c2cn[nH]c2-c2cc(OC)c(OC)c(OC)c2)cc1N`, the GI50 with DU-145 prostate is < 0.01 µM and 0.0508 µM; with SF-295 CNS it was < 0.01 µM and 0.0134 µM; with SNB-75 CNS, under 0.01 µM; in the assay on 786-0 renal, < 0.01 µM and 0.0611 µM; with UO-31 renal it was 0.191 µM and 0.118 µM; in the assay on HCT-116 colon, < 0.01 µM and 0.0344 µM. In addition, the GI50 was < 0.01 µM and 0.0405 µM with SK-MEL-5 melanoma; < 0.01 µM and 0.0535 µM in the assay on RPMI-8226 leukemia. Besides, the TGI in the assay with DU-145 prostate is over 100 µM; with SF-268 CNS, over 100 µM; in the assay with SF-295 CNS, over 100 µM; in the assay on NCI-H226 lung, > 100 µM and 56.3 µM; in the assay on SNB-75 CNS, over 100 µM; in the assay with 786-0 renal, 86.5 µM and > 56.6 µM. Moreover, the TGI in the assay on UO-31 renal is over 100 µM; with HCT-116 colon it was over 100 µM; with RPMI-8226 leukemia, 30.8 µM and 54.1 µM.

For `C[C@H]1CCC/C=C/[C@@H]2C[C@H](O)C[C@H]2[C@H](O)[C@@H](S(=O)CCN(C)C)CC(=O)O1` (some centres not stated), the GI50 with DU-145 prostate is 0.555 µM; in the assay on SF-268 CNS, 0.0564 µM; with SF-295 CNS it was 0.524 µM; with NCI-H226 lung it was 0.0562 µM; in the assay with SNB-75 CNS it was 0.0332 µM; in the assay on 786-0 renal it was 0.0416 µM. The GI50 is 0.184 µM in the assay on UO-31 renal, 0.279 µM in the assay on HCT-116 colon, 0.0374 µM in the assay on SK-MEL-5 melanoma and 0.387 µM with RPMI-8226 leukemia. Further, the TGI with DU-145 prostate was over 100 µM; in the assay on SF-295 CNS, over 100 µM; with NCI-H226 lung, over 100 µM; in the assay on UO-31 renal, over 100 µM; in the assay with HCT-116 colon, 1.19 µM; with SK-MEL-5 melanoma, 0.131 µM.

(Values after PubChem BioAssay (NCI).)
